Experimental data from PubChem BioAssay (NCI).
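How tested: cells in 96-well plates exposed to compound for 48 hours at five concentrations. Here, GI50 denotes the concentration required for 50% inhibition of growth. TGI: concentration producing complete growth inhibition.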

Tests used:
Test in all cases: growth of human tumour cells (NCI), 48 h
ACHN renal = system: ACHN renal
COLO 205 colon = system: COLO 205 colon
K-562 leukemia = system: K-562 leukemia
MOLT-4 leukemia = system: MOLT-4 leukemia
NCI-H226 lung = system: NCI-H226 lung
NCI-H460 lung = system: NCI-H460 lung
SK-MEL-2 melanoma = system: SK-MEL-2 melanoma
SK-MEL-28 melanoma = system: SK-MEL-28 melanoma

Compound | TGI (ACHN renal) | TGI (COLO 205 colon) | TGI (K-562 leukemia) | TGI (MOLT-4 leukemia) | TGI (NCI-H226 lung) | TGI (NCI-H460 lung) | TGI (SK-MEL-2 melanoma) | TGI (SK-MEL-28 melanoma) | GI50 (ACHN renal) | GI50 (COLO 205 colon) | GI50 (K-562 leukemia) | GI50 (MOLT-4 leukemia) | GI50 (NCI-H226 lung) | GI50 (NCI-H460 lung) | GI50 (SK-MEL-2 melanoma) | GI50 (SK-MEL-28 melanoma)
O=C(CCC1OCCO1)Nc1cc(NCc2ccccc2)ccc1OCc1ccccc1 | > 100 µM | 52.1 µM | > 100 µM | 81.5 µM | > 100 µM | > 100 µM | 49.7 µM | > 100 µM | – | – | – | – | – | – | – | –
O=c1cccc(C#CC#CC2=CCCCC2)o1 | 10 µM | 13.5 µM | > 41.8 µM | > 33 µM | 14.6 µM | 21.8 µM | > 49 µM | > 52.6 µM | 4.49 µM | 4.58 µM | 3.26 µM | 0.309 µM | 6.87 µM | 10.6 µM | 10.3 µM | > 29.9 µM
COc1ccc(/C=C/C(=O)C(CC2CCC2)C(=O)/C=C/c2ccc(OC)c(OC)c2)cc1OC | 2.95 µM | 5 µM | > 100 µM | 8.95 µM | 6.74 µM | 4.14 µM | 4.7 µM | 5.39 µM | 1.48 µM | 2.41 µM | 2.15 µM | 2.82 µM | 2.68 µM | 2.01 µM | 2.11 µM | 2.16 µM
O=C(/C=C\c1ccc(NCc2ccc(C(=O)O)cc2)cc1)CCl | 31.6 µM | 29.4 µM | 14 µM | 26.4 µM | 41.6 µM | 34.3 µM | 30.5 µM | 31.4 µM | 16.1 µM | 14.2 µM | 3.36 µM | 4.45 µM | 17.1 µM | 17 µM | 15 µM | 16.8 µM
CCCCON(OC(=O)c1ccc2ccc3cccc4ccc1c2c34)C(C)=O | 51.6 µM | 98.9 µM | 50.2 µM | 37.2 µM | 53.3 µM | > 100 µM | 68.9 µM | 81.7 µM | 21.7 µM | 24.9 µM | 20.9 µM | 17.4 µM | 21 µM | 32.1 µM | 23.9 µM | 27.1 µM
CC1=C[C@H]2c3c(c(O)c(O)c4oc(-c5ccccc5)cc(=O)c34)[C@H](c3cc(O)c(O)c4oc(-c5ccccc5)cc(=O)c34)[C@H]2C(C)(C)C1 | 5.67 µM | 11.6 µM | > 75 µM | > 75 µM | 3.59 µM | 1.83 µM | 9.61 µM | 9.51 µM | 0.679 µM | 1.48 µM | 0.294 µM | 0.988 µM | 1.36 µM | 0.275 µM | 1.77 µM | 1.12 µM
O=C1Nc2ccc(F)cc2/C1=C/c1ccc[nH]1 | > 25 µM | > 25 µM | > 25 µM | > 25 µM | > 25 µM | > 25 µM | > 25 µM | > 25 µM | 18.5 µM | > 25 µM | > 25 µM | > 25 µM | > 25 µM | > 25 µM | > 25 µM | > 25 µM
Cc1[nH]c2ccccc2c(=O)c1CC=C(Cl)Cl | > 100 µM | > 100 µM | > 100 µM | > 100 µM | > 100 µM | > 100 µM | > 100 µM | > 100 µM | 37.3 µM | > 100 µM | 99.2 µM | 82.3 µM | 25.9 µM | 72.5 µM | 28.4 µM | 52.9 µM
CC(C)(C[C@H]1CN(S(=O)(=O)c2cccc(C(F)(F)F)c2)c2cc(-c3cc(F)cc(OC(F)F)c3)ccc2O1)C(=O)O | 23.1 µM | 32.7 µM | 30.3 µM | 29.7 µM | 56 µM | 16.3 µM | 18.2 µM | 24.4 µM | 11.1 µM | 11.3 µM | 4.83 µM | 5.88 µM | 15.2 µM | 4.1 µM | 4.8 µM | 10.9 µM
Br[C](Br)(Br)[Hg][c]1ccccc1 | 30.8 µM | 16.2 µM | 5.02 µM | 35.2 µM | 35.8 µM | 37.9 µM | 32 µM | 27.8 µM | 17.1 µM | 4.55 µM | 0.275 µM | 3.66 µM | 16.8 µM | 16.8 µM | 17.8 µM | 14.3 µM
COc1cc(/C=C/c2ccc(OC)c(OC)c2)cc(OC)c1 | 89.8 µM | 39.7 µM | > 100 µM | > 100 µM | 74.4 µM | 73.6 µM | > 100 µM | > 100 µM | – | – | – | – | – | – | – | –
